Experimental findings from the Deep4Chem optical property database are described below.

A short description of the series: photoluminescence quantum yield (fraction); solvent given as SMILES.

Values joined by “and” are separate entries in the source; they are usually repeats but may differ in a detail not shown here. Equal values may be shown once.

With `CC1=[N+]2C(=C(Oc3ccc4c(c3)CC[C@@H]3[C@@H]4CC[C@]4(C)C(=O)CC[C@@H]34)c3ccc(C)n3[B-]2(F)F)C=C1c1cc2n(c1)[B-](F)(F)[N+]1=CC=CC1=C2c1c(C)cc(C)cc1C`, the photoluminescence quantum yield runs as follows: (in C1CCCCC1) 0.52; (in CCOC(C)=O) 0.12.

With `CC1(C)c2ccccc2N(c2cccc(S(=O)(=O)c3cccc(N4c5ccccc5C(C)(C)c5ccccc54)c3)c2)c2ccccc21`, the photoluminescence quantum yield was 0.239 (in CCCCC(CC)n1c2ccc(-n3c4ccccc4c4ccccc43)cc2c2cc(-n3c4ccccc4c4ccccc43)ccc21) and 0.365 (in c1cc(-n2c3ccccc3c3ccccc32)cc(-n2c3ccccc3c3ccccc32)c1).

In turn, `COC(=O)C1=C(C(=O)OC)C2(c3ccccc3-c3ccccc32)[C@@H](c2ccc([N+](=O)[O-])cc2)C=C2c3cc(OC)c(OC)cc3CCN21` displayed a photoluminescence quantum yield (in ClCCl) of 0.00065.

Turning to `CCN(CC)c1ccc2c(c1)oc(=O)c1c(=O)oc3c(C)c4oc(=O)c5c(=O)oc6cc(N(CC)CC)ccc6c5c4cc3c12`, the photoluminescence quantum yield runs as follows: (in CS(C)=O) 0.002; (in ClCCl) 0.67.

In turn, `CC(C)(C)c1ccc2c(c1)c1ncncc1c1c3ccccc3sc21` returned a photoluminescence quantum yield (in ClCCl) of 0.1.

Take `CC(=O)c1nc(-c2ccc(N(c3ccccc3)c3ccccc3)cc2)oc1C`: the photoluminescence quantum yield by setting is: (in CC#N) 0.486; (in CCO) 0.264; (in CCOC(C)=O) 0.659; (in CCOCC) 0.886; (in ClCCl) 0.972.

In turn, `Cc1ccc(C2C3=C(CCCC3=O)Nc3c2c(=O)oc2ccccc32)cc1` (centres undefined) came in with a photoluminescence quantum yield (in CS(C)=O) of 0.83.

`COc1nc(Cl)nc(Nc2ccc3c4c(cccc24)C(=O)c2ccccc2-3)n1`: the photoluminescence quantum yield reads like this: (in CC#N) 0.52; (in CC(C)=O) 0.54; (in CC(C)O) 0.5; (in CCCCOCCCC) 0.05; (in CCOC(C)=O) 0.34; (in CCOCC) 0.12. The molecule further gave a photoluminescence quantum yield (in CO) of 0.33; a photoluminescence quantum yield (in Cc1ccccc1) of 0.27; a photoluminescence quantum yield (in Clc1ccccc1) of 0.5; a photoluminescence quantum yield (in N#Cc1ccccc1) of 0.58; a photoluminescence quantum yield (in O=C1CCCCC1) of 0.51.

In turn, `O=[N+]([O-])c1ccc(NCCNCc2c3ccccc3cc3ccccc23)c([N+](=O)[O-])c1` yielded a photoluminescence quantum yield (in C1CCCCC1) of 0.0003; a photoluminescence quantum yield (in C1CCOC1) of 0.00044; a photoluminescence quantum yield (in CC#N) of 0.00168; a photoluminescence quantum yield (in CC(C)=O) of 0.0024; a photoluminescence quantum yield (in CCO) of 0.0363; a photoluminescence quantum yield (in CN(C)C=O) of 0.00369. The photoluminescence quantum yield reads like this: (in CO) 0.0334; (in ClC(Cl)Cl) 0.0061.

In turn, `CC(C)c1cccc(C(C)C)c1-n1c(=O)c2cc3nc(-c4ccccc4)c4cc5c(=O)n(-c6c(C(C)C)cccc6C(C)C)c(=O)c6cc7nc(-c8ccccc8)c8cc(c1=O)c2c1c3c4c(c65)c7c81` came in with a photoluminescence quantum yield (in ClC(Cl)Cl) of 0.25.

In turn, `CN(C)c1nc(N)c2nc(C#N)n(Cc3ccccc3)c2n1` registered a photoluminescence quantum yield (in C1COCCO1) of 0.92, a photoluminescence quantum yield (in CC#N) of 0.55, a photoluminescence quantum yield (in CO) of 0.8 and a photoluminescence quantum yield (in ClCCl) of 0.95.

Regarding `F[B-]1(F)n2c(-c3cccs3)cc(-c3cccs3)c2N=C2C(c3cccs3)=CC(c3cccs3)=[N+]21`, the photoluminescence quantum yield reads like this: (in C1CCOC1) 0.12; (in CC#N) 0.11; (in CS(C)=O) 0.13; (in Cc1ccccc1) 0.1; (in ClCCl) 0.12 and 0.11.

In turn, `COc1ccc(-c2cc(N3CCCCC3)c(C#N)c3c2-c2cccc4cccc-3c24)cc1` had a photoluminescence quantum yield (in O) of 0.36.

On to `CCCCC(CC)COc1cc(OCC(CC)CCCC)c2c#cc3ccc4sc5ccc(c#cc6cc(c#cc7ccc8sc9ccc(c#cc1c2)cc9c8c7)c(C(CCCC)OCCC)cc6C(CCCC)OCCC)cc5c4c3` (centres undefined), for which the photoluminescence quantum yield (in ClCCl) turned out to be 0.22.

Molecule `COc1ccc(C2=C3C(/C=C/c4cc(OC)c(OC)c(OC)c4)=C(C=O)C(C)=[N+]3[B-](F)(F)n3c(/C=C/c4cc(OC)c(OC)c(OC)c4)c(C=O)c(C=Cc4cc(OC)c(OC)c(OC)c4)c32)cc1` showed a photoluminescence quantum yield (in ClCCl) of 0.1.

For the setting “in C1CCCCC1”, `CCCC1(CCC)c2ccccc2-c2ccccc21` displayed a photoluminescence quantum yield of 0.36.

Where the note is “in ClCCl”, `COC(=O)C1=C(C(=O)OC)C2(c3ccccc3-c3c(Br)cc(Br)cc32)C2(/C=C/c3ccccc3)c3cc(OC)c(OC)cc3CCN12` (centres undefined) displayed a photoluminescence quantum yield of 0.00091.

For the setting “in O=P(c1ccccc1)(c1ccccc1)c1ccc2oc3ccc(P(=O)(c4ccccc4)c4ccccc4)cc3c2c1”, `c1ccc(-c2nc(-c3ccccc3)nc(-c3ccc(-n4c5ccccc5c5ccc6c(c7ccccc7n6-c6ccccc6)c54)cc3)n2)cc1` came in with a photoluminescence quantum yield of 0.9.

On to `N#Cc1cc(-n2c3ccccc3c3ccccc32)c(-n2c3ccccc3c3ccccc32)cc1C#N`, for which the photoluminescence quantum yield by setting is: (in C1CCOC1) 0.125; (in Cc1ccccc1) 0.465; (in c1ccc2c(c1)c1ccccc1n2-c1ccc(-c2ccc(-n3c4ccccc4c4ccccc43)cc2)cc1) 0.6.

With `C(#Cc1ccc(C#Cc2ccccc2)cc1)c1ccccc1`, the photoluminescence quantum yield (in ClC(Cl)Cl) is 0.5.

Where the note is “in ClCCl”, `CC1=C(C)C(c2c(C)c(C)c3n2[B-](F)(F)[N+]2=C(C)C(C)=C(C)C2=C3)=[N+]2C1=Cc1c(C)c(C)c(C)n1[B-]2(F)F` returned a photoluminescence quantum yield of 0.7.

Regarding `CCN(CC)c1ccc2c(-c3ccccc3C(=O)[O-])c3ccc(=[N+](CC)CC)cc-3oc2c1`, the photoluminescence quantum yield is 0.4 (in CC#N); 0.66 (in CCO); 0.42 (in CN(C)C=O); 0.7 (in CO); 0.36 and 0.31 (in O).

In the case of `Brc1ccc(-c2pc3ccccc3s2)cc1` (centres undefined), under “in CC#N”, the photoluminescence quantum yield turned out to be 0.032.

Molecule `N#C/C(=C\c1ccc(C(F)(F)F)cc1)c1nc(-c2ccc(Cl)cc2)cs1` showed a photoluminescence quantum yield (in CC#N) of 0.057.

For `Cc1cc(-c2ccc3ccccc3c2)cc(C)[o+]1`, the photoluminescence quantum yield (in ClCCl) turned out to be 0.64.

For `Cc1cc(C)c(C2=C3C=CC=[N+]3[B-]3(F)Oc4cc(O)cc5c6ccc(C)cc6c6cc2n3c6c45)c(C)c1` (centres undefined), where the note is “in ClC(Cl)Cl”, the photoluminescence quantum yield was 0.35.

On to `O=C1NC(=O)C(c2c[nH]c3ccccc23)=C1c1c[nH]c2ccccc12`, for which the photoluminescence quantum yield came out at 0.24 (in C1CCOC1); 0.1 (in CC#N); 0.28 (in CC(C)OC(C)C); 0.22 (in CCCCOCCCC); 0.003 (in CCO); 0.21 (in CCOC(C)=O). The photoluminescence quantum yield worked out at 0.13 (in CN(C)C=O), 0.28 (in Cc1ccccc1) and 0.21 (in ClCCl).

Molecule `CC(=O)OC[C@H]1O[C@@H](OCC#Cc2ccc(C3=C4C(C)=CC(/C=C/c5ccc([N+](C)(C)C)cc5)=[N+]4[B-](F)(F)n4c(/C=C/c5ccc([N+](C)(C)C)cc5)cc(C)c43)cc2)[C@H](OC(C)=O)C(OC(C)=O)[C@@H]1OC(C)=O` (some centres undefined) showed a photoluminescence quantum yield (in CC#N) of 0.72.

On to `COc1cc2oc(=O)c3c4ccc(C=O)cc4c4ccc5cccc6c(c1)c2c3c4c56`, for which the photoluminescence quantum yield (in C1CCOC1) is 0.459.

On to `Cn1c(-c2ccc(-c3nc(-c4ccccc4)c(-c4ccccc4)n3C)cc2)nc(-c2ccccc2)c1-c1ccccc1`, for which, for the setting “in CC#N”, the photoluminescence quantum yield is 0.9 and 0.66.

Take `CCCCCCc1ccc2c3c(ccc2c1)O[B-](F)(F)[N+](c1cc([N+]2=Cc4c(ccc5cc(CCCCCC)ccc45)O[B-]2(F)F)cc([N+]2=Cc4c(ccc5cc(CCCCCC)ccc45)O[B-]2(F)F)c1)=C3`: the photoluminescence quantum yield amounted to 0.26 (in C1CCOC1), 0.18 (in CC#N), 0.48 (in Cc1ccccc1) and 0.44 (in ClCCl).

Consider `CN(C)c1ccc(-c2c(/C=C3/C=Cc4ccccc4N3C)c(=O)c2=O)cc1`, for which the photoluminescence quantum yield is, setting by setting: (in C1CCCCC1) 0.0301; (in Cc1ccccc1) 0.0256; (in ClCCl) 0.001.

Turning to `CN(C)c1ccc(/C=C/C=C/c2nc3ccccc3s2)cc1`, the photoluminescence quantum yield came out at 0.0068 (in CC#N); 0.022 (in CCCCCC); 0.0044 (in CCCCO); 0.0054 (in CCCO); 0.0045 (in CCO); 0.0064 (in CN(C)C=O). Further, the photoluminescence quantum yield stood at 0.0039 (in CO); 0.0088 (in Cc1ccccc1); 0.0054 (in ClCCl); 0.039 (in OCC(O)CO); 0.0062 (in OCCO).

`CCCCCCN1C(=O)c2cccc3cc(/N=C\c4ccc(N(c5ccccc5)c5ccccc5)cc4)cc(c23)C1=O` displayed a photoluminescence quantum yield (in ClC(Cl)Cl) of 0.14.

Regarding `c1cc2c([nH]c3c4[nH]c5sccc5c4c4nsnc4c23)s1`, the photoluminescence quantum yield is, setting by setting: (in C1CCOC1) 0.38; (in CCOC(C)=O) 0.34; (in CN(C)C=O) 0.33; (in Cc1ccccc1) 0.42; (in ClCCl) 0.27.

On to `COc1cc(N(c2ccccc2)c2ccc(C=C(C#N)C#N)c(OC)c2)ccc1C=C(C#N)C#N`, for which the photoluminescence quantum yield was found to be 0.035 (in C1COCCO1); 0.008 (in CC#N); 0.017 (in CC(C)=O); 0.085 (in CCOC(C)=O); 0.073 (in CN(C)C=O); 0.039 (in CO). Further, the photoluminescence quantum yield was 0.032 (in Cc1ccccc1), 0.076 (in ClC(Cl)Cl) and 0.072 (in ClCCl).

In the case of `CC(C)c1cccc(C(C)C)c1N1C(=O)c2cccc3c(Oc4ccc(C(C)(C)C)cc4)ccc(c23)C1=O`, the photoluminescence quantum yield (in ClCCl) was 0.11.
